Holding throughout (type): physicochemical
Data set [1] in a line: Water content (Karl Fischer) and loss on drying (TGA) of the form as obtained. The conditions noted are these: for Water content: by weight. The protocol: (§1) TGA analysis was performed using a Mettler M3 meter. The weight of the samples was about 10 mg. The samples were scanned at a rate of 10° C./min from 25° C. to 200° C. The oven was constantly purged with nitrogen gas at a flow rate of 40 ml/min. Standard 70 μl alumina crucibles covered by lids with 1 hole were used.
(§2) The water content of ladostigil tartrate was measured by methods known in the art, such Karl Fischer analysis.

Data set [2] in a line: Hygroscopicity study: exposure to 0-100% relative humidity at room temperature (Karl Fischer, TGA, crystal form by XRD).
From the text: Form E was placed for 1 week under 0-100% relative humidity at room temperature. Table 1 summarizes the results:
Form F was placed for 14 days under 0-100% relative humidity at room temperature. Table 2 summarizes the results:
Form H was placed for 14 days under 0-100% relative humidity at room temperature. Table 3 summarizes the results:
Form J1 was placed for 9 days under 0-100% relative humidity at room temperature. Table 4 summarizes the results:
Table 5 summarizes the results:
(§3) X-Ray powder diffraction data were obtained by method known in the art using a SCINTAG powder X-Ray diffractometer model X'TRA equipped with a solid state detector. Copper radiation of 1.5418 Å was used. A round aluminum sample holder with round zero background quartz plate, with a cavity of 25(diameter)*0.5(depth) mm was used.
as §1, §2
Crystal form was determined after equilibration of ladostigil tartrate form A for 10 days at various relative humidities at room temperature.
Form A1 was exposed at various humidity conditions at room temperature for 13 days.
Ladostigil tartrate form A1 was exposed to various humidity conditions at room temperature for 14 days. TGA was performed, and the crystal form was analyzed.
A mixture of ladostigil tartrate form A1 and E, containing primarily form A1, was exposed at various humidity conditions at room temperature for 14 days.
Form E was placed for 7 days under 0-100% relative humidity at room temperature. Table 12 summarizes the results:
Form F was placed for 14 days under 0-100% relative humidity at room temperature. Table 14 summarizes the results:
Ladostigil tartrate Form H was exposed for 14 days under 0-100% relative humidity at room temperature. Table 15 summarizes the results:
Crystal ladostigil tartrate Form J1 was placed for 9 days under 0-100% relative humidity at room temperature.

Data set [3] can be described thus: Effect of micronization, pressing and grinding (XRD). The protocol: The effects of micronization, pressing (1 minute at 100 metric tons) and grinding were determined by XRD and the following results were obtained: […]
The nature of data set [4]: Effect of heating on polymorph form. Here is the method:
as §3
The heated sample was analyzed by XRD. Form A1 was obtained.
Various polymorph forms and mixtures thereof were heated. The heating conditions and resulting polymorph forms are described in table 17 below: […]

Setting [5] is: 100% RH, equilibration 10 days, room temperature.
The mark [6] stands for this setting: pressing 1 minute at 100 metric tons.
The mark [7] stands for this setting: 0% RH, 14 days, room temperature.
Setting [8] is: 20% RH, 14 days, room temperature.
Where [9] appears, read: 40% RH, 14 days, room temperature.
Setting [10] is: 60% RH, 14 days, room temperature.
Setting [11] is: 80% RH, 14 days, room temperature.
The mark [12] stands for this setting: 100% RH, 14 days, room temperature.
Setting [13] is: 0% RH, 9 days, room temperature.
Setting [14] is: 40% RH, 9 days, room temperature.
The mark [15] stands for this setting: 60% RH, 9 days, room temperature.
[16] abbreviates: 100% RH, 9 days, room temperature.

“Also recorded” adds a separate entry of the source.

For “carbamic acid, ethylmethyl-, (3R)-2,3-dihydro-3-(2-propynylamino)-1H-inden-5-yl ester, (2R,3R)-2,3-dihydroxybutanedioate (2:1) [Essentially Amorphous Form]”, in data set [1], the “Weight loss / loss on drying by TGA” value is recorded as “about 5%” and the Water content result is given as “about 2%”.
For “carbamic acid, ethylmethyl-, (3R)-2,3-dihydro-3-(2-propynylamino)-1H-inden-5-yl ester, (2R,3R)-2,3-dihydroxybutanedioate (2:1) [Form A]”, the “Weight loss / loss on drying by TGA” value in data set [1] is listed as “about 0.3%”. The Water content result in data set [1] is recorded as “about 0.3%”; in data set [2] (20% RH, equilibration 10 days, room temperature), 0.3%; in data set [2] (40% RH, equilibration 10 days, room temperature) it was 0.3%; in data set [2] (60% RH, equilibration 10 days, room temperature), 0.3%; in data set [2] (80% RH, equilibration 10 days, room temperature), 0.3%; in data set [2] (setting [5]) it was 0.2%. Besides, in data set [2] (setting [5]), the Crystal Form entry was “stable”. Also, the Hygroscopicity entry in data set [2] (conclusion in words) is “neither Form A nor Form A1 is hygroscopic; also recorded: non-hygroscopic”. In addition, the “Crystal form upon exposure to high relative humidity” value in data set [2] (high relative humidity, in words) is given as “does not change crystalline form”. For the same substance, in data set [3] (grinding), the “Crystal form after grinding” value was “mixture of Forms A and A1”. Also, the “Crystal form after pressing” value in data set [3] (setting [6]) is on record as “mainly to Form A1”. In addition, in data set [3] (setting [6]), the Crystallinity after pressing entry is reported as “lose some extent of crystallinity”.
Regarding “carbamic acid, ethylmethyl-, (3R)-2,3-dihydro-3-(2-propynylamino)-1H-inden-5-yl ester, (2R,3R)-2,3-dihydroxybutanedioate (2:1) [Form B]”, the “Resulting form after heating/drying” value in data set [4] (80° C., time not specified) was “mixture of Form A1 and form E, primarily form A1”. Also, the “Weight loss / loss on drying by TGA” value in data set [1] was “about 1%”.
With “carbamic acid, ethylmethyl-, (3R)-2,3-dihydro-3-(2-propynylamino)-1H-inden-5-yl ester, (2R,3R)-2,3-dihydroxybutanedioate (2:1) [Form C]”, the “Resulting form after heating/drying” value in data set [4] (50° C. under vacuum, 1 hour) is “Form C was still detected”; in data set [4] (50° C. under vacuum, 12 hours) it was “Form B”; in data set [4] (55° C. under vacuum, 17 hours), “Form E”; in data set [4] (55° C., 17 hours), “Form B”; in data set [4] (55° C., 19 hours) it was “Form B”. Moreover, in data set [1], the “Weight loss / loss on drying by TGA” value is “about 40%”. For the same substance, the Water content entry in data set [1] was “about 2%”.
For “carbamic acid, ethylmethyl-, (3R)-2,3-dihydro-3-(2-propynylamino)-1H-inden-5-yl ester, (2R,3R)-2,3-dihydroxybutanedioate (2:1) [Form F]”, the “Weight loss / loss on drying by TGA” value in data set [1] is on record as “about 3%”. Also, the Water content in data set [1] was 1.3-2.6%. Also, the “Crystal Form (resulting form)” value in data set [2] (setting [7]) is listed as “Form F”; in data set [2] (setting [8]), “Form F”; in data set [2] (setting [9]), “Form F”; in data set [2] (setting [10]), “Form A1 + ~10% E”; in data set [2] (setting [11]), “Form A1 + ~20% A”. The “Water content by Karl Fisher” value in data set [2] (setting [7]) stood at 1.3%; in data set [2] (setting [8]) it was 2.2%; in data set [2] (setting [9]), 2.6%; in data set [2] (setting [10]) it was 0.3%; in data set [2] (setting [11]), 0.3%; in data set [2] (setting [12]), 0.3%. For the same substance, the “Loss on Dry by TGA” value in data set [2] (setting [8]) worked out at 3.0%; in data set [2] (setting [9]), 2.9%; in data set [2] (setting [10]) it was 0.3%; in data set [2] (setting [11]) it was 0.2%; in data set [2] (setting [12]), 0.3%. Besides, in data set [2] (14 days, room temperature), the “Relative humidity range in which the form is stable” value is recorded as 0-40 % RH.
With “carbamic acid, ethylmethyl-, (3R)-2,3-dihydro-3-(2-propynylamino)-1H-inden-5-yl ester, (2R,3R)-2,3-dihydroxybutanedioate (2:1) [Form H]”, the “Weight loss / loss on drying by TGA” value in data set [1] was “about 6%”. Besides, the Water content result in data set [1] is on record as “about 0.6%”. Moreover, the “Crystal Form (resulting form)” value was “Form H” in data set [2] (setting [7]); “Form F” in data set [2] (setting [8]); “Form L” in data set [2] (setting [9]); “Form A1 + ~30% E” in data set [2] (setting [10]); “Form A1 + ~20% A” in data set [2] (setting [11]); “Form A + ~30% A1” in data set [2] (setting [12]). In addition, the “Loss on Dry by TGA” value in data set [2] (setting [7]) is on record as 6.1%; in data set [2] (setting [8]) it was 5.2%; in data set [2] (setting [9]) it was 2.7%; in data set [2] (setting [10]), 0.5%; in data set [2] (setting [11]), 0.2%; in data set [2] (setting [12]), 0.2%. For the same substance, the “Water content by Karl Fisher” value in data set [2] (setting [7]) stood at 0.42%; in data set [2] (setting [8]), 0.7%; in data set [2] (setting [9]), 1.4%; in data set [2] (setting [10]), 0.3%; in data set [2] (setting [11]) it was 0.2%; in data set [2] (setting [12]), 0.3%.
For the substance “carbamic acid, ethylmethyl-, (3R)-2,3-dihydro-3-(2-propynylamino)-1H-inden-5-yl ester, (2R,3R)-2,3-dihydroxybutanedioate (2:1) [Form J1]”, the “Weight loss / loss on drying by TGA” value in data set [1] is reported as “about 10%”. The Water content result in data set [1] is recorded as “about 1%”. In addition, the “Crystal Form” value in data set [2] (setting [13]) is on record as “Form J1”; in data set [2] (20% RH, 9 days, room temperature), “partly to Form K; also recorded: Form K + ~20% J1”; in data set [2] (setting [14]) it was “Form K”; in data set [2] (setting [15]), “Form K”; in data set [2] (80% RH, 9 days, room temperature), “Form A1 + ~20% A”; in data set [2] (setting [16]), “Form A + ~30% A1”. Besides, the “Loss on Dry by TGA” value in data set [2] (setting [13]) came out at 5.4%; in data set [2] (setting [14]) it was 0.8%; in data set [2] (setting [15]) it was 0.5%; in data set [2] (setting [16]), 0.1%. Also, the “Water content by Karl Fisher” value in data set [2] (setting [13]) was found to be 0.1%; in data set [2] (setting [14]), 0.2%; in data set [2] (setting [15]), 0.2%; in data set [2] (setting [16]), 0.0%.
With “carbamic acid, ethylmethyl-, (3R)-2,3-dihydro-3-(2-propynylamino)-1H-inden-5-yl ester, (2R,3R)-2,3-dihydroxybutanedioate (2:1) [Form K]”, in data set [1], the “Weight loss / loss on drying by TGA” value is reported as 0.5-0.8% and the Water content result was “about 0.2%”. In addition, the “Relative humidity range in which the form is stable” value in data set [2] (from the 9 day study of Form J1, room temperature) was 20-60 % RH.
For the substance “carbamic acid, ethylmethyl-, (3R)-2,3-dihydro-3-(2-propynylamino)-1H-inden-5-yl ester, (2R,3R)-2,3-dihydroxybutanedioate (2:1) [Form L]”, the “Resulting form after heating/drying” value in data set [4] (60° C. in conventional oven, 2 hours) is recorded as “polymorphically stable”. In data set [1], the “Weight loss / loss on drying by TGA” value is on record as 2.7-13.8% and the Water content was 0.6-1.4%.
